Consider eight molecules from PMC8205030, “Methoxy and bromo scans on N-(5-methoxyphenyl) methoxybenzenesulphonamides reveal potent cytotoxic compounds, especially against the human breast adenocarcinoma MCF7 cell line” (Journal of Enzyme Inhibition and Medicinal Chemistry, 2021).

Series [1] has as its system HT-29 (human colon carcinoma) cells. As to the kind of experiment: Cell growth assay (XTT), HT-29, alone or with verapamil. In kind it is cell-based. The method, then:
The presence of mycoplasma was routinely checked with MycoAlert kit (Lonza-Cambrex) and only mycoplasma-free cells were used in the experiments. Tumour cell lines were kindly provided by Dr Faustino Mollinedo from Centro de Investigaciones Biológicas Margarita Salas, Madrid, Spain. To determine cell growth, cells in exponential growth phase were seeded (100 µL/well in 96-well plates) with appropriate cell concentration (1.5 × 10^4 cells/mL for MCF7, HeLa and HEK-293 and 3 × 10^4 cells/mL for HT-29) in complete DMEM or RPMI 1640 medium (see above) at 37 °C and 5% CO2 atmosphere. After 24 h incubation, to allow cells to attach to the plates, all compounds were added at 1 µM concentration (10 µL/well in 96-well plates) and the effect on the proliferation was evaluated 72 h post-treatment. […] Nonlinear curves fitting the experimental data were carried out for each compound. […] A freshly prepared mixture solution of XTT labelling reagent with 0.02% (v/v) PMS (N-methyl-dibenzopyrazine methyl sulfate) electron coupling reagent was added to cells (50 µL/well in 96-well plates, the total volume of 160 µL/well) and were incubated during the corresponding time according to each cell line (4 h for MCF7 and HeLa and 6 h for HT-29 and HEK-293) in a humidified atmosphere (37 °C, 5% CO2). The absorbance of the formazan product generated was measured at a test wavelength of 450 nm using a multi-well plate reader (Ultra Evolution, Tecan, Männedorf, Suiza). Compounds were dissolved in DMSO and the final solvent concentrations never exceeded 0.5% (v/v). The control wells included treated cells with 0.5% (v/v) DMSO and the positive control. 10 µM verapamil was included as a control for the HT-29 cell line. Measurements were performed in triplicate, and each experiment was repeated three times.

The target in series [2] is T1, microtubular protein isolated from calf brain (Bos taurus, UniProt P81947+Q6B856).
T1 construct: isolated from calf brain according to the modified Shelanski method; from tissue; host or cells: calf brain
T1 sequence (Q6B856 whole entry): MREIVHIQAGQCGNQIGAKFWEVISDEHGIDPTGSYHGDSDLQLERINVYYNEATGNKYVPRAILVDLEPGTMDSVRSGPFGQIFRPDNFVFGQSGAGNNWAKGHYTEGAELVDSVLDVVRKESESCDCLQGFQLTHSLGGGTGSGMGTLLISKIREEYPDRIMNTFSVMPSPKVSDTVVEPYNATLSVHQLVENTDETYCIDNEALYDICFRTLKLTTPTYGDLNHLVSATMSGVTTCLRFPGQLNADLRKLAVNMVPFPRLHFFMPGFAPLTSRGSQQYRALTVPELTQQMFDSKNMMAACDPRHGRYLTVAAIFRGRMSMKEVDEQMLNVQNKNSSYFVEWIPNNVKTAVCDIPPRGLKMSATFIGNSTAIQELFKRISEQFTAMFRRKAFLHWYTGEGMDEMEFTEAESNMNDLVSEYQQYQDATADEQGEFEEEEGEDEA
T1 sequence (P81947 whole entry): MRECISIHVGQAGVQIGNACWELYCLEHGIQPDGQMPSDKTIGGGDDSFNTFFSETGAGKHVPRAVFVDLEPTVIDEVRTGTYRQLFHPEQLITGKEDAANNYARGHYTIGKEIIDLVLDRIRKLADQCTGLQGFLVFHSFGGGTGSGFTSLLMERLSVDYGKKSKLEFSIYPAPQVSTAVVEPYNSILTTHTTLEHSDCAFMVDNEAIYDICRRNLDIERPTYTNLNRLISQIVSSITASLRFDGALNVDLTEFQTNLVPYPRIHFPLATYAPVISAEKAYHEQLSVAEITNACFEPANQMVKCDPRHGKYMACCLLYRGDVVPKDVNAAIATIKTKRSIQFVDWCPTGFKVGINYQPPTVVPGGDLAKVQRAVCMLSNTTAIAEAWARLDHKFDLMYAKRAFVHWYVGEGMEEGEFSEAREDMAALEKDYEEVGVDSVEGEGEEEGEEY
Description: Inhibition of tubulin polymerisation (turbidity). The settings on record: for TPI % 10 µM: 10 µM compound, 1.5 mg/mL microtubular protein; for pIC50: in vitro tubulin polymerisation inhibition, read-out: TPI IC50. In kind it is biochemical. The method, then: Microtubular protein was isolated from calf brain according to the modified Shelanski method[23]^,[24] by two cycles of temperature-dependent assembly/disassembly and stored at −80 °C. Before each use, protein concentration is determined by Bradford method[25] taking BSA as standard. Tubulin polymerisation was monitored using a Helios α spectrophotometer by measuring the increase in turbidity at 450 nm, caused by a shift from 4 °C to 37 °C, which allows the in vitro microtubular protein to depolymerise and to polymerise, respectively. The assay was carried out in quartz cuvettes containing 1.5 mg/mL microtubular protein and the ligand (except for control cuvette with only DMSO at the same concentration) in a mixture of 0.1 M MES buffer, 1 mM EGTA, 1 mM MgCl2, 1 mM β-ME, and 1.5 mM GTP at pH 6.7 (final volume 500 µL). Cuvettes were preincubated at 20 °C for 30 min, to allow ligand binding to tubulin, and subsequently cooled on ice for 10 min. Then, the experiment starts at 4 °C to establish the initial baseline. The assembly process was initiated by a temperature shift to 37 °C and the turbidity produced by tubulin polymerisation can be measured by an absorbance increase. After reaching a stable plateau, the temperature was switched back to 4 °C to return to the initial absorption values (to confirm the reversible nature of the monitored process and to determine whether or not the microtubular protein has stabilized). The difference in amplitude between the stable plateau and the initial baseline of the curves was taken as the degree of tubulin polymerisation for each experiment. […] All compounds were tested at 10 µM concentration. IC50 values were calculated for compounds that inhibit tubulin polymerisation more than 50% at 10 µM. […] All the measurements were carried out in at least two independent experiments using microtubular protein from different preparations.

In series [3] the test system is HeLa (human cervical carcinoma) cells. As to the kind of experiment: Cell growth assay (XTT), HeLa. In kind it is cell-based. The settings on record: 72 h drug exposure, read-out: Antiproliferative activity IC50 HeLa. The method, then:
(§1) The presence of mycoplasma was routinely checked with MycoAlert kit (Lonza-Cambrex) and only mycoplasma-free cells were used in the experiments. Tumour cell lines were kindly provided by Dr Faustino Mollinedo from Centro de Investigaciones Biológicas Margarita Salas, Madrid, Spain. To determine cell growth, cells in exponential growth phase were seeded (100 µL/well in 96-well plates) with appropriate cell concentration (1.5 × 10^4 cells/mL for MCF7, HeLa and HEK-293 and 3 × 10^4 cells/mL for HT-29) in complete DMEM or RPMI 1640 medium (see above) at 37 °C and 5% CO2 atmosphere. After 24 h incubation, to allow cells to attach to the plates, all compounds were added at 1 µM concentration (10 µL/well in 96-well plates) and the effect on the proliferation was evaluated 72 h post-treatment. Compounds showing antiproliferative effects at tested concentration were selected for IC50 calculation (50% inhibitory concentration compared to the untreated controls) from 10^−5 to 10^−10 M concentration. Nonlinear curves fitting the experimental data were carried out for each compound. […] A freshly prepared mixture solution of XTT labelling reagent with 0.02% (v/v) PMS (N-methyl-dibenzopyrazine methyl sulfate) electron coupling reagent was added to cells (50 µL/well in 96-well plates, the total volume of 160 µL/well) and were incubated during the corresponding time according to each cell line (4 h for MCF7 and HeLa and 6 h for HT-29 and HEK-293) in a humidified atmosphere (37 °C, 5% CO2). The absorbance of the formazan product generated was measured at a test wavelength of 450 nm using a multi-well plate reader (Ultra Evolution, Tecan, Männedorf, Suiza). Compounds were dissolved in DMSO and the final solvent concentrations never exceeded 0.5% (v/v). The control wells included treated cells with 0.5% (v/v) DMSO and the positive control. 10 µM verapamil was included as a control for the HT-29 cell line. Measurements were performed in triplicate, and each experiment was repeated three times.
On the technique in general: Tetrazolium dyes change colour on reduction, which living cells bring about.

Series [4] can be described thus: Aqueous solubility (saturation shake-flask, UV). In kind it is physicochemical. The settings on record: aqueous buffer, thermodynamic from solid, pH 7.0 phosphate buffer, room temperature. The method, then: The aqueous solubility was determined in a Helios-α UV-320 Spectrophotometer Thermo-Spectronic, Thermo Fischer Scientific, Waltham, MA, USA) using an approach based on the saturation shake-flask method. 1–2 mg of each selected compound was suspended in 300 µL pH 7.0 buffer and stirred for 48 h at room temperature. The resulting mixture was filtered through a […] filter to discard the insoluble residues. A scan between 270 and 400 nm for the tested compound was performed and three wavelengths of maximum absorbance were selected. Calibration curves were performed at these wavelengths and the concentration in the supernatant was measured by UV absorbance. The final value was given as the average of the three measurements.

The test system of series [5] is MCF7 (human breast carcinoma) cells. Description: Cell growth assay (XTT), MCF7. In kind it is cell-based. The settings on record: for pIC50: Homo sapiens, MCF7, 72 h drug exposure, XTT, read-out: Antiproliferative activity IC50 MCF7; for Fold more potent against MCF7 than against HeLa: ratio of IC50 values. The method, then: as §1
Where [6] appears, read: Homo sapiens, HT-29, 72 h drug exposure, XTT, read-out: Antiproliferative activity IC50 HT-29.
Setting [7] is: 72 h, in the presence of Pgp/MDR1 inhibitor verapamil (10 µM), read-out: Antiproliferative activity IC50 HT-29 Verap.

Molecules are shown by their SMILES. pIC50: −log10 of the molar value. Values after ≈ are worked out from the molar mass of the structure shown. Where two headings read alike, the source gives them in different places. Some results are limits rather than exact numbers.

Consider `COc1ccc(S(=O)(=O)Nc2cc(OC)c(OC)cc2Br)cc1` [Compound 13, N-(2-bromo-4,5-dimethoxyphenyl)-4-methoxybenzenesulphonamide], for which the melting point fell in the range of 162 to 167 °C. Further, in series [1] (setting [6]), the pIC50 is 6.27. Also, in series [2], the “TPI % 10 µM” value worked out at 0% and the pIC50 is less than 5.00. Moreover, the pIC50 in series [3] was 6.29. The molecule also gave a solubility at 48 h in series [4] of 22 µg/mL (≈ 54.7 µM).

In the case of `COc1ccc(S(=O)(=O)N(CC#N)c2cc(OC)c(OC)cc2Br)cc1` [Compound 16, N-(2-bromo-4,5-dimethoxyphenyl)-N-(cyanomethyl)-4-methoxybenzenesulphonamide], the melting point lay in the range of 76 to 84 °C. The pIC50 in series [1] (setting [7]) is 6.12. For the same molecule, in series [1] (setting [6]), the pIC50 is 6.44. For the same molecule, the pIC50 in series [5] is 6.24. Moreover, in series [2], the “TPI % 10 µM” value worked out at 16% and the pIC50 was less than 5.00. The pIC50 in series [3] was 6.39. In series [4], this molecule registered a solubility at 48 h of 13 µg/mL (≈ 29.5 µM).

`CCN(c1cc(OC)c(OC)cc1Br)S(=O)(=O)c1ccc(OC)cc1` [Compound 15, N-(2-bromo-4,5-dimethoxyphenyl)-N-ethyl-4-methoxybenzenesulphonamide] returned a melting point of 111 to 117 °C. Moreover, the pIC50 in series [1] (setting [7]) is 6.30. Further, the pIC50 in series [1] (setting [6]) was 6.44. Moreover, the pIC50 in series [5] is 6.18. Further, in series [2], the “TPI % 10 µM” value is on record as 24% and the pIC50 is less than 5.00. In addition, the pIC50 in series [3] was 6.50. For the same molecule, in series [4], the solubility at 48 h was found to be 26 µg/mL (≈ 60.4 µM).

Consider `COc1ccc(S(=O)(=O)N(C)c2cc(OC)c(OC)cc2OC)cc1` [Compound 33, 4-Methoxy-N-methyl-N-(2,4,5-trimethoxyphenyl)benzenesulphonamide], for which the melting point lay within 137 to 143 °C. Also, the negative-log IC50 (pIC50) in series [1] (setting [7]) is 6.24. For the same molecule, in series [1] (setting [6]), the pIC50 is 6.30. In series [5], the pIC50 was 7.00 and the “Fold more potent against MCF7 than against HeLa” value is reported as 4–7 fold. Besides, in series [2], the “TPI % 10 µM” value is reported as 0% and the pIC50 is less than 5.00. For the same molecule, in series [3], the negative logarithm of the IC50 (pIC50) was 6.38. The molecule also showed a solubility at 48 h in series [4] of 157 µg/mL (≈ 427 µM).

Molecule `COc1ccc(S(=O)(=O)Nc2cc(OC)ccc2OC)cc1` [Compound 21, N-(2,5-dimethoxyphenyl)-4-methoxybenzenesulphonamide] came in with a melting point of 114 to 115 °C. The pIC50 in series [1] (setting [6]) was 6.73. Besides, the pIC50 in series [5] was 6.46. Besides, in series [2], the “TPI % 10 µM” value is given as 0% and the pIC50 was less than 5.00. Also, in series [3], the pIC50 is 6.64. In series [4], this molecule returned a solubility at 48 h of 13 µg/mL (≈ 40.2 µM).

The molecule `COc1ccc(S(=O)(=O)Nc2ccc(OC)c(OC)c2)cc1` [Compound 11, N-(3,4-dimethoxyphenyl)-4-methoxybenzenesulphonamide] gave a melting point of 101 to 102 °C. Also, in series [1] (setting [6]), the pIC50 is less than 6.00. For the same molecule, in series [5], the negative logarithm of the IC50 (pIC50) is less than 6.00. For the same molecule, in series [2], the “TPI % 10 µM” value came out at 4% and the pIC50 is less than 5.00. Further, in series [3], the pIC50 was less than 6.00. For the same molecule, the solubility at 48 h in series [4] amounted to 82 µg/mL (≈ 254 µM).

For `COc1ccc(S(=O)(=O)N(C)c2cc(OC)c(OC)cc2Br)cc1` [Compound 14, N-(2-bromo-4,5-dimethoxyphenyl)-4-methoxy-N-methylbenzenesulphonamide], the melting point was in the range of 136 to 141 °C. In series [1] (setting [6]), the pIC50 is 6.04. In series [2], the “TPI % 10 µM” value is on record as 0% and the pIC50 was less than 5.00. Also, the pIC50 in series [3] is 6.25. Also, the solubility at 48 h in series [4] was 61 µg/mL (≈ 147 µM).

Consider `COc1ccc(S(=O)(=O)N(CC#N)c2cc(OC)c(OC)cc2OC)cc1` [Compound 35, N-(cyanomethyl)-4-methoxy-N-(2,4,5-trimethoxyphenyl)benzenesulphonamide], for which the melting point fell in the range of 173 to 180 °C. Further, the pIC50 in series [1] (setting [7]) is 6.38. Further, in series [1] (setting [6]), the negative logarithm of the IC50 (pIC50) is 6.44. Moreover, in series [5], the negative-log IC50 (pIC50) was 7.17 and the “Fold more potent against MCF7 than against HeLa” value is reported as 4–7 fold. For the same molecule, in series [2], the “TPI % 10 µM” value came to 5% and the pIC50 was less than 5.00. Also, the pIC50 in series [3] is 6.30. Moreover, the solubility at 48 h in series [4] came out at 15 µg/mL (≈ 38.2 µM).

A word on the melting point: it is the temperature, or range, at which the solid turns liquid. In general, pIC50 refers to the negative decadic logarithm of the IC50, by convention in mol/L. Usually solubility stands for the concentration that dissolves in the medium under given conditions. Low values mean little dissolved substance, high ones much dissolved substance.
